pIC50: −log10 of the molar value.
Biological target: Glycogen synthase kinase-3 beta (Homo sapiens, UniProt P49841)
Assay: Kinase Assay: The effect of test compounds on the activity of the protein kinases GSK-3β, VEGFR-2 and FLT-3 was evaluated based on half maximal inhibitory concentration (IC50) values determined by Millipore UK Ltd; Gemini Crescent; Dundee Technology Park; Dundee DD2 1SW; UK (IC50Profiler). Detailed protocols can be found at: www.millipore.com/drugdiscovery/dd3/assayprotocols.

Sequence of Glycogen synthase kinase-3 beta (P49841 whole entry): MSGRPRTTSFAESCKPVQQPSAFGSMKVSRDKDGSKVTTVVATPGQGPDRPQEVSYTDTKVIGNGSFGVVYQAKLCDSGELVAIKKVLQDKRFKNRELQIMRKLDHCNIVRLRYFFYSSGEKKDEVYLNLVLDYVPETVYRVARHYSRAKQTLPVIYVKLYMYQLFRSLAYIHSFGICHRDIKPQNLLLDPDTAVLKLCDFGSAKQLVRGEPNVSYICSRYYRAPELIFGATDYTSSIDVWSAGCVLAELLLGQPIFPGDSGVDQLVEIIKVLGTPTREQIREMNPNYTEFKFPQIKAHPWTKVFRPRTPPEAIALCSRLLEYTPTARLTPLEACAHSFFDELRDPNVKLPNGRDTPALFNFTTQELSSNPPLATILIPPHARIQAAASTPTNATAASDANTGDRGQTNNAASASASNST

pIC50: 5.47
SMILES: COc1cc(C2=C(c3cn(CCCO)c4ccccc34)C(=O)NC2=O)cc(OC)c1OC
